*1 amine or outer side, *2 acyl side, *3 side chain or, on linkers, in order; H or OH if unused. Where a SMILES comes first, the peptide text is derived from it. Bridges are numbered along the chain shown (N, C = ends). [ ]: non-standard residue; d: D form. The star is where a group is joined. X169 = CN([C@@H](Cc1cc(Cl)ccc1-c1ccc(-c2cnn3c2COCC3)cc1)C(=O)[*:2])[*:1]; X119 = CC(=O)N1C2C=C(c3ccc(F)cc3C[C@@H](C(=O)[*:2])N(C)[*:1])CC1COC2; NMePhe(5-Cl,2-O(2-Pym)) = CN[C@@H](Cc1cc(Cl)ccc1Oc1ncccn1)C(=O)O; X193 = CN([C@@H](Cc1cc(Cl)ccc1-c1cnc2nonc2c1)C(=O)[*:2])[*:1]; NMehhhLys(Me) = CN([C@@H](CCCCCCCN(C)[*:3])C(=O)[*:2])[*:1]; X176 = CN([C@@H](Cc1cc(F)ccc1-c1cccnc1)C(=O)[*:2])[*:1]; NMe(hhhLys) = CN([C@@H](CCCCCCCN[*:3])C(=O)[*:2])[*:1]; cBuCO(3,3-F2-1-CF3) = O=C(C1(C(F)(F)F)CC(F)(F)C1)*; Pro(trans-4-F) = O=C(O)[C@@H]1C[C@@H](F)CN1; Gly(cPr) = N[C@H](C(=O)O)C1CC1
Tests used:
NCI-H1048 cells = assay: MTT proliferation assay, NCI-H1048; assay type: cell-based; conditions: 5 days compound exposure, 1:3 serial dilution starting at 10 μM;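 further: Dose-response in 96-well plates over 8 or 10 concentration points, with exposure spanning 3-4 cell doublings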
OVCAR3 cells = assay: MTT proliferation assay, OVCAR3; assay type: cell-based; conditions: 5 days compound exposure, 1:3 serial dilution starting at 10 μM;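 further: compound given as an 8- or 10-point series, one day after plating, with exposure covering roughly 3-4 cell doublings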
CyclinE1/CDK2 = molecular target: T1, CyclinE1/CDK2 (Homo sapiens, UniProt P24864); assay: Fluorescence Polarization (FP) competitive binding assay, Cyclin E1/Cdk2; conditions: 10 nM Cyclin E1/Cdk2, 2 nM FAM probe; average of 2-3 independent experiments; read-out: Cyclin E FP IC50;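 further: readings taken after two-hour equilibration at room temperature in HEPES buffer with NaCl, DTT, NP-40 and BSA, IC50 fitted from eight-concentration serial dilution series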
T1 construct: purchased Eurofins, discovery 14-475

CyclinB1/CDK1 = molecular target: T2, CyclinB1/CDK1 (Homo sapiens, UniProt P14635); assay: Fluorescence Polarization (FP) competitive binding assay, Cyclin B1/Cdk1; conditions: 10 nM Cyclin B1/Cdk1, 2 nM FAM probe; average of 2-3 independent experiments; read-out: Cyclin B FP IC50;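 further: fluorescence polarization read after equilibration at room temperature, with IC50 taken from serially diluted dose-response curves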
T2 construct: purchased Eurofins, discovery 14-450

CyclinA2/CDK2 = molecular target: T3, CyclinA2/CDK2 (Homo sapiens, UniProt P20248); assay: Fluorescence Polarization (FP) competitive binding assay, Cyclin A2/Cdk2; conditions: 8 nM Cyclin A2/Cdk2, 2 nM FAM probe; average of 2-3 independent experiments; read-out: Cyclin A FP IC50;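 further: plates equilibrated two hours at room temperature before polarization reading, IC50 fitted from eight-concentration compound titration curves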
T3 construct: purchased CRELUX Protein Services

CC(C)C[C@@H]1NC(=O)[C@@H](N(C)C(=O)[C@@H](NC(=O)[C@@H]2C[C@@H](F)CN2C(=O)C2(C(F)(F)F)CC(F)(F)C2)C2CC2)CCCCCCCN(C)C(=O)[C@H](Cc2cc(Cl)ccc2-c2ccc(-c3cnn4c3COCC4)cc2)N(C)C1=O [Example 378] ({cBuCO(3,3-F2-1-CF3)}-[Pro(trans-4-F)][Gly(cPr)][NMehhhLys(Me)]L[X169]; lactam 3-C)
GI50 (NCI-H1048 cells): 10 nM
GI50 (OVCAR3 cells): 20 nM
IC50 (CyclinE1/CDK2): 1120 nM
IC50 (CyclinB1/CDK1): 20 nM
IC50 (CyclinA2/CDK2): 20 nM

CC(C)C[C@@H]1NC(=O)[C@@H](N(C)C(=O)[C@@H](NC(=O)[C@@H]2C[C@@H](F)CN2C(=O)C2(C(F)(F)F)CC(F)(F)C2)C2CC2)CC=CCCCCNC(=O)[C@H](Cc2cc(Cl)cnc2OC2CC2)N(C)C1=O (single isomer, unassigned) [Example 102-P1]
GI50 (NCI-H1048 cells): 350 nM
GI50 (OVCAR3 cells): 810 nM
IC50 (CyclinE1/CDK2): 1110 nM
IC50 (CyclinB1/CDK1): 20 nM
IC50 (CyclinA2/CDK2): 310 nM

CC(C)C[C@@H]1NC(=O)[C@@H](N(C)C(=O)[C@@H](NC(=O)[C@@H]2C[C@@H](F)CN2C(=O)C2(C(F)(F)F)CC(F)(F)C2)C2CC2)CCCCCCCN(C)C(=O)[C@H](Cc2cc(Cl)ccc2-c2cnc3nonc3c2)N(C)C1=O [Example 171] ({cBuCO(3,3-F2-1-CF3)}-[Pro(trans-4-F)][Gly(cPr)][NMehhhLys(Me)]L[X193]; lactam 3-C)
GI50 (NCI-H1048 cells): 150 nM
GI50 (OVCAR3 cells): 210 nM
IC50 (CyclinE1/CDK2): 4210 nM
IC50 (CyclinB1/CDK1): 20 nM
IC50 (CyclinA2/CDK2): 80 nM

CC(C)C[C@@H]1NC(=O)[C@@H](NC(=O)[C@@H](NC(=O)[C@@H]2C[C@@H](F)CN2C(=O)C2(C(F)(F)F)CC(F)(F)C2)C2CC2)CC=CCCCCNC(=O)[C@H](Cc2cc(Cl)ccc2Cl)N(C)C1=O [Example 4]
GI50 (NCI-H1048 cells): 120 nM
GI50 (OVCAR3 cells): 60 nM
IC50 (CyclinE1/CDK2): 100 nM
IC50 (CyclinB1/CDK1): 20 nM
IC50 (CyclinA2/CDK2): 90 nM

CC(C)C[C@@H]1NC(=O)[C@@H](N(C)C(=O)[C@@H](NC(=O)[C@@H]2C[C@@H](F)CN2C(=O)C2(C(F)(F)F)CC(F)(F)C2)C2CC2)CCCCCCCN(C)C(=O)[C@H](Cc2cc(Cl)ccc2Oc2ncccn2)N(C)C1=O [Example 155] ({cBuCO(3,3-F2-1-CF3)}-[Pro(trans-4-F)][Gly(cPr)][NMehhhLys(Me)]L[NMePhe(5-Cl,2-O(2-Pym))]; lactam 3-C)
GI50 (NCI-H1048 cells): 10 nM
GI50 (OVCAR3 cells): 20 nM
IC50 (CyclinE1/CDK2): 410 nM
IC50 (CyclinB1/CDK1): 20 nM
IC50 (CyclinA2/CDK2): 100 nM

CC(=O)N1C2C=C(c3ccc(F)cc3C[C@H]3C(=O)N(C)CCCCCCC[C@H](N(C)C(=O)[C@@H](NC(=O)[C@@H]4C[C@@H](F)CN4C(=O)C4(C(F)(F)F)CC(F)(F)C4)C4CC4)C(=O)N[C@@H](CC(C)C)C(=O)N3C)CC1COC2 (stereo partly drawn) [Example 124] ({cBuCO(3,3-F2-1-CF3)}-[Pro(trans-4-F)][Gly(cPr)][NMehhhLys(Me)]L[X119]; lactam 3-C)
GI50 (NCI-H1048 cells): 20 nM
GI50 (OVCAR3 cells): 20 nM
IC50 (CyclinE1/CDK2): 540 nM
IC50 (CyclinB1/CDK1): 20 nM
IC50 (CyclinA2/CDK2): 20 nM

CC(C)C[C@@H]1NC(=O)[C@@H](N(C)C(=O)[C@@H](NC(=O)[C@@H]2C[C@@H](F)CN2C(=O)C2(C(F)(F)F)CC(F)(F)C2)C2CC2)CCCCCCCNC(=O)[C@H](Cc2cc(F)ccc2-c2cccnc2)N(C)C1=O [Example 280] ({cBuCO(3,3-F2-1-CF3)}-[Pro(trans-4-F)][Gly(cPr)][NMe(hhhLys)]L[X176]; lactam 3-C)
GI50 (NCI-H1048 cells): 10 nM
GI50 (OVCAR3 cells): 10 nM
IC50 (CyclinE1/CDK2): 320 nM
IC50 (CyclinB1/CDK1): 20 nM
IC50 (CyclinA2/CDK2): 40 nM

COCn1cc(-c2ccc(Cl)cc2C[C@H]2C(=O)N(C)CCCCC=CC[C@H](N(C)C(=O)[C@@H](NC(=O)[C@@H]3C[C@@H](F)CN3C(=O)C3(C(F)(F)F)CC(F)(F)C3)C3CC3)C(=O)N[C@@H](CC(C)C)C(=O)N2C)cn1 [Example 79]
GI50 (NCI-H1048 cells): 30 nM
GI50 (OVCAR3 cells): 40 nM
IC50 (CyclinE1/CDK2): 630 nM
IC50 (CyclinB1/CDK1): 20 nM
IC50 (CyclinA2/CDK2): 50 nM

CC[C@H](NC(=O)[C@@H]1C[C@@H](F)CN1C(=O)C1(C(F)(F)F)CC1)C(=O)N[C@H]1CC=CCCCCNC(=O)[C@H](Cc2cc(Cl)ccc2Cl)N(C)C(=O)[C@H](CC(C)C)NC1=O [Example 2]
GI50 (NCI-H1048 cells): 380 nM
GI50 (OVCAR3 cells): 410 nM
IC50 (CyclinE1/CDK2): 100 nM
IC50 (CyclinB1/CDK1): 20 nM
IC50 (CyclinA2/CDK2): 110 nM

CC(C)C[C@@H]1NC(=O)[C@@H](N(C)C(=O)[C@@H](NC(=O)[C@@H]2C[C@@H](F)CN2C(=O)C2(C(F)(F)F)CC(F)(F)C2)C2CC2)CC=CCCCCN(C)C(=O)[C@H](Cc2cc(F)ccc2C2=CCCC2)N(C)C1=O [Example 46]
GI50 (NCI-H1048 cells): 720 nM
GI50 (OVCAR3 cells): 790 nM
IC50 (CyclinE1/CDK2): 350 nM
IC50 (CyclinB1/CDK1): 20 nM
IC50 (CyclinA2/CDK2): 20 nM

— patent US20240408169A1 (priority 2023, published 2024)
